Measured values from ChEMBL document CHEMBL1134127, “A mechanism-based affinity-labeling agent for possible use in isolating N-acetylglucosaminidase” (Bioorg Med Chem Lett, 2001).

Assay: Inhibitory activity against O-linked N-acetyl-glucosaminidase (O-GlcNAc'ase)
Set-up: species or system Rattus norvegicus

Ki: 50 µM
SMILES: CC(=O)NC1[C@@H](O)[C@@H](O)C(CO)O[C@H]1SC1CC(=O)N(c2ccc(C(=O)c3ccccc3)cc2)C1=O (stereo partly specified)
